# Assay results taken from BindingDB's records for doi:10.1021/jm00001a017 (Bristol-Myers Squibb Pharmaceutical Research Institute, 1995).
# Target: Voltage-dependent L-type calcium channel (Cavia porcellus)
# Assay: Displacement of [3H]nitrendipine from dihydropyridine receptor of guinea pig myocardial membranes
row,Kd [µM],SMILES
1,13.7,"CSC1=NC2=C(C(=O)OC2)C(c2cccc([N+](=O)[O-])c2SC)N1 (stereo unspecified) [2-Methylsulfanyl-4-(2-methylsulfanyl-3-nitro-phenyl)-4,7-dihydro-1H-furo[3,4-d]pyrimidin-5-one]"
2,> 50,"CSC1=NC(c2cc([N+](=O)[O-])ccc2SC)C2=C(COC2=O)N1 (stereo unspecified) [2-Methylsulfanyl-4-(2-methylsulfanyl-5-nitro-phenyl)-4,7-dihydro-1H-furo[3,4-d]pyrimidin-5-one]"
3,45.2,"CSC1=NC(c2ccccc2SC)c2c(coc2O)N1 (stereo unspecified) [2-Methylsulfanyl-4-(2-methylsulfanyl-phenyl)-4,7-dihydro-1H-furo[3,4-d]pyrimidin-5-one]"
4,36.9,"CSC1=NC(c2cccc([N+](=O)[O-])c2)C2=C(COC2=O)N1 (stereo unspecified) [2-Methylsulfanyl-4-(3-nitro-phenyl)-4,7-dihydro-1H-furo[3,4-d]pyrimidin-5-one]"
5,> 50,"CCCCSc1ccccc1C1N=C(SC)Nc2coc(O)c21 (stereo unspecified) [4-(2-Butylsulfanyl-phenyl)-2-methylsulfanyl-4,7-dihydro-1H-furo[3,4-d]pyrimidin-5-one]"
6,0.018,"CSC1=NC2c3ccccc3SCCCCCOC(=O)C2C(C)=N1 (stereo unspecified) [4-Methyl-2-methylsulfanyl-3,8,9,10,11,16b-hexahydro-7H-6-oxa-12-thia-1,3-diaza-dibenzo[a,c]cyclododecen-5-one]"
7,0.005,"CSC1=NC(C)=C2C(=O)OCCCCCSc3c(cccc3[N+](=O)[O-])C2N1 (stereo unspecified) [4-Methyl-2-methylsulfanyl-13-nitro-3,8,9,10,11,16b-hexahydro-7H-6-oxa-12-thia-1,3-diaza-dibenzo[a,c]cyclododecen-5-one]"
8,0.873,"CSC1=NC2C(=C(C)N1)C(=O)OCCCCCSc1ccc([N+](=O)[O-])cc12 (stereo unspecified) [4-Methyl-2-methylsulfanyl-15-nitro-3,8,9,10,11,16b-hexahydro-7H-6-oxa-12-thia-1,3-diaza-dibenzo[a,c]cyclododecen-5-one]"
9,2.7,"COC(=O)C1C(C)=NC(SC)=NC1c1cc([N+](=O)[O-])ccc1SC (stereo unspecified) [6-Methyl-2-methylsulfanyl-4-(2-methylsulfanyl-5-nitro-phenyl)-1,4-dihydro-pyrimidine-5-carboxylic acid methyl ester]"
10,1.52,"COC(=O)C1C(C)=NC(SC)=NC1c1ccccc1SC (stereo unspecified) [6-Methyl-2-methylsulfanyl-4-(2-methylsulfanyl-phenyl)-1,4-dihydro-pyrimidine-5-carboxylic acid methyl ester]"
11,0.48,"COC(=O)C1C(C)=NC(SC)=NC1c1cccc([N+](=O)[O-])c1 (stereo unspecified) [6-Methyl-2-methylsulfanyl-4-(3-nitro-phenyl)-1,4-dihydro-pyrimidine-5-carboxylic acid methyl ester]"
